The subject of one assay is HeLa cells. Put plainly: cells. It counts as cell-based.
In assay [1] the test system is alkaline phosphatase (ALP) activity in C2C12 cells. The class given is cell-based. The conditions noted are these: assay number 6; concentration response.
The subject of assay [2] is nuclear β-catenin in C2C12 cells. Description: cells. It counts as cell-based. The following applies: for WntCondMedia_bCatenin C2C12 IC50/EC50: assay number 5, concentration response.
The target in the next assay is T1, hKDR (Homo sapiens, UniProt P35968).
T1 construct: purchased Cerep (LANCE kinase assay platform, contract assay)
T1 sequence (P35968 20-1356): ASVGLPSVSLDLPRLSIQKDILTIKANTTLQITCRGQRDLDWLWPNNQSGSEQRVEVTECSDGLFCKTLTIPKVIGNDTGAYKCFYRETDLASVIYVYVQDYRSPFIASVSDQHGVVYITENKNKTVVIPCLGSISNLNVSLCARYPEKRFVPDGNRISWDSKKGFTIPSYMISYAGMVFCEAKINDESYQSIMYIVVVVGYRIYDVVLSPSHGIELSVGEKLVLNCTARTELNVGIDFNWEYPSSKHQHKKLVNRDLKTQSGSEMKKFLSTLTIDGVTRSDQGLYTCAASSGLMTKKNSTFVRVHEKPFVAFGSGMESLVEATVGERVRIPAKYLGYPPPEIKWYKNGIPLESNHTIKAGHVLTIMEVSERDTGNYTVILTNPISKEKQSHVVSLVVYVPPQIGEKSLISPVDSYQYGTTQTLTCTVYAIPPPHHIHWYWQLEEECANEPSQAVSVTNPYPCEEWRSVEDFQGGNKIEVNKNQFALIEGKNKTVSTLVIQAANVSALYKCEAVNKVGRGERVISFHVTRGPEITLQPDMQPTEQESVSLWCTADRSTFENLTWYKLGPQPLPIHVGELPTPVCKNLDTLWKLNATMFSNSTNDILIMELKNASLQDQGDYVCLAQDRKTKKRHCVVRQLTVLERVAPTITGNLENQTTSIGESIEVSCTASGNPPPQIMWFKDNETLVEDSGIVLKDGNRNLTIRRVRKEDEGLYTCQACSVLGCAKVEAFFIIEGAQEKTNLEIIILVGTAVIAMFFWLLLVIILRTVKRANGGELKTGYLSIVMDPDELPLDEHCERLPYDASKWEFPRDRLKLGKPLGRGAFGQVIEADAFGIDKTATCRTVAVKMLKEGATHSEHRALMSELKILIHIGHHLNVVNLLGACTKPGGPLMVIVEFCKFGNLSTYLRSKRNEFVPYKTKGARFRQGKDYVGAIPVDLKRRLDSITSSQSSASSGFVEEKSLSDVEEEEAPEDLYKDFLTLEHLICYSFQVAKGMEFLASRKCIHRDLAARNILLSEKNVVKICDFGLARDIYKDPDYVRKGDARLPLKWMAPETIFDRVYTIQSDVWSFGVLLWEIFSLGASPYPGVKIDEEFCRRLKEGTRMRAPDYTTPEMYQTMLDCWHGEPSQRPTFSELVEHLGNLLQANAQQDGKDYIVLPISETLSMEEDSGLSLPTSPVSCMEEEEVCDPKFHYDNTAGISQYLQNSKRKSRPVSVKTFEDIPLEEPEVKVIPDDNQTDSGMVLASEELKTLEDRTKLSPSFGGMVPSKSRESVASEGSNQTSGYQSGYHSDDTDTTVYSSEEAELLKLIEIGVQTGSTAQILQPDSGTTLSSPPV
Description: Cerep LANCE kinase assay hKDR (S1 assay 32). The class given is biochemical.

In the next assay the test system is NCI-H716 cells. Put plainly: cells. The class given is cell-based, Human.
For the next assay, the target named is T2, hp70S6K1 (RPS6KB1) (Homo sapiens, UniProt P23443).
T2 construct: purchased Cerep (LANCE kinase assay platform, contract assay)
T2 sequence (P23443 whole entry): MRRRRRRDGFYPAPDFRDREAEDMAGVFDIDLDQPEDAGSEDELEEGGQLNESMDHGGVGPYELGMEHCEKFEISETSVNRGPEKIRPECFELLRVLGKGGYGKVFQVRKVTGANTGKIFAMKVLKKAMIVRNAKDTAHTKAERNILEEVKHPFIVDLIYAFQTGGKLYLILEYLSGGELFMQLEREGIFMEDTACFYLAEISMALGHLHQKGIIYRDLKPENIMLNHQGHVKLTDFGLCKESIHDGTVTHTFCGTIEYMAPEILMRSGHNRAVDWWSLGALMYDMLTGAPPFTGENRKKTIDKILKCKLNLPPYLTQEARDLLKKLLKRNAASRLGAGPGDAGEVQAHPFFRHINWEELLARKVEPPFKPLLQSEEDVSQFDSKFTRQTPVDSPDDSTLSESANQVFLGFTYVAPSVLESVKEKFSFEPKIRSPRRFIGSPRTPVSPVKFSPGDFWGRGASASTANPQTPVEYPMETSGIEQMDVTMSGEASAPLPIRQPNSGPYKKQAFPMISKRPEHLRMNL
Description: Cerep LANCE kinase assay hp70S6K1 (S1 assay 31). The class given is biochemical. (In general: TR-FRET usually uses a lanthanide donor and a delayed reading to cut background.)

For assay [3], the system named is endothelial tube formation in co-cultures of ECFCs and ADSCs treated with VEGF. Put plainly: cells. The class given is cell-based, human.
The next assay concerns the target T3, hGSK3b (Homo sapiens, UniProt P49841).
T3 construct: purchased Cerep (LANCE kinase assay platform, contract assay)
Put plainly: Cerep LANCE kinase assay hGSK3b (S1 assay 34). It counts as biochemical.

A further assay concerns the target T4, hFLT3 (Homo sapiens, UniProt P36888).
T4 construct: purchased Cerep (LANCE kinase assay platform, contract assay)
Description: Cerep LANCE kinase assay hFLT3 (S1 assay 35). The class given is biochemical.

Assay [4] concerns ECFC/ADSC co-culture cell nuclei number.
Another assay addresses T5, hJAK2 (Homo sapiens, UniProt O60674).
T5 construct: purchased Cerep (LANCE kinase assay platform, contract assay)
Put plainly: Cerep LANCE kinase assay hJAK2 (S1 assay 33). The class given is biochemical.

For a further assay, the system named is STC-1 cell line. It counts as cell-based, mouse.
The test system of another assay is INS-1E cells. Put plainly: cells. The class given is cell-based, rat.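 For 5mMGluc INS1E SecretionMod IC50/EC50: secreted insulin quantified by homogeneous immunoassay.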
The next assay has as its system DLD-1. Put plainly: cells. The class given is cell-based.
Another assay deals with SW480. Description: cells. It counts as cell-based.
In another assay the test system is SNU-C1. Description: cells. It counts as cell-based.
In a further assay the test system is HCT116. Put plainly: cells. The class given is cell-based.
Another assay has as its system HT-29. Description: cells. It counts as cell-based.
The subject of a further assay is RKO. Description: cells. It counts as cell-based.
The next assay relates to Colo320. Put plainly: cells. The class given is cell-based.
Assay [5] relates to HCT116 cells treated with a GSK3β inhibitor. Description: cells. It counts as cell-based.

Where two headings read alike, the source gives them in different places. *1 amine or outer side, *2 acyl side, *3 side chain or, on linkers, in order; H or OH if unused. Where a SMILES comes first, the peptide text is derived from it. Bridges are numbered along the chain shown (N, C = ends). Roman numbers before positions name the chains, in order. [ ]: non-standard residue; d: D form. Actinocin(9to1) = Cc1c2oc3c(C)ccc(C(=O)[*:1])c3nc-2c(C(=O)[*:2])c(N)c1=O; NMeV = CN[C@H](C(=O)O)C(C)C; Sar = CNCC(=O)O Some results are limits rather than exact numbers.

T3 sequence (P49841 whole entry): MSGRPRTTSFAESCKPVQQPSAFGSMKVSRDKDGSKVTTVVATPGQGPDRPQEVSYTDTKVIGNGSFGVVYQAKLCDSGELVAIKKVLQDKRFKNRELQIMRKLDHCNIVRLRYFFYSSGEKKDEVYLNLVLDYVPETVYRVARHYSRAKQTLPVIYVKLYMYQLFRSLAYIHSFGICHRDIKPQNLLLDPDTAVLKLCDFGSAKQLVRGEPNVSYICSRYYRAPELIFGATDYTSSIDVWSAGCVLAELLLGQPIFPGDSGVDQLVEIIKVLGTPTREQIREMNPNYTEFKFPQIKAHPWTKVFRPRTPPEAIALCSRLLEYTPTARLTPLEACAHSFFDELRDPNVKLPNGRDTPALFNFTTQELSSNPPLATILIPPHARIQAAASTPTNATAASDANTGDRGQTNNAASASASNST
T5 sequence (O60674 whole entry): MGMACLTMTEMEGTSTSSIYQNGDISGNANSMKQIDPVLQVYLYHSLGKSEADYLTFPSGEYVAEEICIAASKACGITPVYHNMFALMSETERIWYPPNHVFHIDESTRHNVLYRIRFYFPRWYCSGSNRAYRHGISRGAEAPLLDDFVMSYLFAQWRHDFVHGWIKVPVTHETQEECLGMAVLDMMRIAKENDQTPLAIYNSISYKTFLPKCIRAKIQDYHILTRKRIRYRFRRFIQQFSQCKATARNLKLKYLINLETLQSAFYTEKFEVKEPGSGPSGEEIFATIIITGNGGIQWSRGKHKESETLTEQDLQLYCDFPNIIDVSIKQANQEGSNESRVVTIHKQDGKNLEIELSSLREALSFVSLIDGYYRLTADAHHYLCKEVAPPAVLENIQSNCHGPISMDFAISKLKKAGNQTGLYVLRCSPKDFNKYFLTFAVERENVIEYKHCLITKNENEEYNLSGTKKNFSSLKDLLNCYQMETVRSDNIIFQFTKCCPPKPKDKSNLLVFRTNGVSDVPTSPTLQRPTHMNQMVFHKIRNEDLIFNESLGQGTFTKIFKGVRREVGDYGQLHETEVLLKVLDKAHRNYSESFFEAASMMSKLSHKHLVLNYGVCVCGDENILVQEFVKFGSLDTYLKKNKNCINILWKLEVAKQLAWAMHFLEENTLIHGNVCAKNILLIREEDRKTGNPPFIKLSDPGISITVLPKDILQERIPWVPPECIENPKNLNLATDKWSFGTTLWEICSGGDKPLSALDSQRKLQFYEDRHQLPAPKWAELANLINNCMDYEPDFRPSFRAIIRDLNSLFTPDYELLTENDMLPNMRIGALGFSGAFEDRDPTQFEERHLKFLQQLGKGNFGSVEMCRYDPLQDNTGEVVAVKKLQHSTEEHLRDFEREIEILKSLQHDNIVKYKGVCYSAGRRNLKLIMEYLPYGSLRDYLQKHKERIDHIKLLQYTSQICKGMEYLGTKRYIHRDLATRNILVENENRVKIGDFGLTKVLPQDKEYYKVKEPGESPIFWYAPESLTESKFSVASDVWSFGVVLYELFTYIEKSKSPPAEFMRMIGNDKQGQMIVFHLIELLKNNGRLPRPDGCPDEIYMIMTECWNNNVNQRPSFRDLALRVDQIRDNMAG
T4 sequence (P36888 27-993): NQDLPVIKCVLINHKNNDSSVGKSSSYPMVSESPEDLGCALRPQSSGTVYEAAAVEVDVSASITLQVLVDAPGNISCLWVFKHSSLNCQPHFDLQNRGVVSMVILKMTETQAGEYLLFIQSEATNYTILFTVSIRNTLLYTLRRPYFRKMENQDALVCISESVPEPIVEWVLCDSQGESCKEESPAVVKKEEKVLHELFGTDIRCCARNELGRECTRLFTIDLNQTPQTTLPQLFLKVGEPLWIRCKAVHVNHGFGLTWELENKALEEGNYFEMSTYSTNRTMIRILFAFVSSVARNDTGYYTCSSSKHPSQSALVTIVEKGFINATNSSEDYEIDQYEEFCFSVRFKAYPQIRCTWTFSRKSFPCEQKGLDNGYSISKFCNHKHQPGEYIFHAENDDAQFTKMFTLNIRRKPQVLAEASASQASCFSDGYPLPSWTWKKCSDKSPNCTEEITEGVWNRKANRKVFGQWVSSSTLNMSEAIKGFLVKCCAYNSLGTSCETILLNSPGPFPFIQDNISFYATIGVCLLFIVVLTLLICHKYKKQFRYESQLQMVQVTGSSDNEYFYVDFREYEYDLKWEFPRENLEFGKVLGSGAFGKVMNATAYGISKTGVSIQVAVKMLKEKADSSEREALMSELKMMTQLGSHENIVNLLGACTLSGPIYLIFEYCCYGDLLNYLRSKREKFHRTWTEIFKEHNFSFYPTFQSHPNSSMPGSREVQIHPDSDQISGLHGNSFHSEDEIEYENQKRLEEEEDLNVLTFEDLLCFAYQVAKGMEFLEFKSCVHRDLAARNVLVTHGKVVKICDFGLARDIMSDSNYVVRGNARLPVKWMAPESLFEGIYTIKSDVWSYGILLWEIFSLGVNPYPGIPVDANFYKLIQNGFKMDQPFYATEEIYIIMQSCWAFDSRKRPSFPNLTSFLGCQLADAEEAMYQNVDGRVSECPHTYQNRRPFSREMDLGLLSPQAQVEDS

In the case of `C=CC(=O)Nc1cc2c(Nc3ccc(F)c(Cl)c3)ncnc2cc1OCCCN1CCOCC1` [NCGC00182713-01], the “Hela CellCycMod PI 2N IC50/EC50” value in the assay with HeLa cells (assay number 14, 2N) is reported as 8.8729 µM. Moreover, the “Hela CellCycMod PI S Phase IC50/EC50” value with HeLa cells (assay number 15, S phase) is recorded as greater than 10 µM. The “Hela CellCycMod PI 4N IC50/EC50” value in the assay with HeLa cells (assay number 16, 4N) was greater than 10 µM. The “Hela CellCycMod PI MI IC50/EC50” value in the assay on HeLa cells (assay number 17, MI) amounted to 4.2934 µM. Also, the “Hela CellCycMod PI Cell Number IC50/EC50” value with HeLa cells (assay number 18, cell number) came out at 2.0936 µM. The “WntCondMedia_Alk Phos C2C12 IC50/EC50” value in [1] came to 9.4628 µM. Also, the “WntCondMedia_bCatenin C2C12 IC50/EC50” value in assay [2] amounted to 1.0017 µM.
As for `CCCCCCCCCCCCCCCCCCNC(=O)OC1CCN(C(=O)OC[C@H](COC(=O)N(Cc2cccc[n+]2CC)C(=O)c2ccccc2OC)OC)CC1.[Cl-]` [NCGC00183020-01], the “hKDR LANCE IC50/EC50” value at hKDR (assay number 32) is recorded as greater than 20 µM. The “hNCI-H716 GLP1 Secretion IC50/EC50” value in the assay with NCI-H716 cells (assay number 12) was found to be 9.522 µM. Besides, the “Hela CellCycMod PI 2N IC50/EC50” value with HeLa cells (assay number 14, 2N) is listed as greater than 10 µM. Besides, the “Hela CellCycMod PI 4N IC50/EC50” value in the assay on HeLa cells (assay number 16, 4N) is greater than 10 µM. Besides, in the assay with HeLa cells (assay number 17, MI), the “Hela CellCycMod PI MI IC50/EC50” value is on record as greater than 10 µM. In addition, the “Hela CellCycMod PI Cell Number IC50/EC50” value in the assay with HeLa cells (assay number 18, cell number) worked out at 6.1389 µM. Also, the “hp70S6K1 LANCE IC50/EC50” value at hp70S6K1 (RPS6KB1) (assay number 31) is listed as greater than 20 µM. For the same compound, the “VEGF_ADSC\ECFC Angio CD31 TubeArea IC50/EC50” value in assay [3] was 1.4957 µM. On hGSK3b (assay number 34), the “hGSK3b LANCE IC50/EC50” value is listed as greater than 20 µM. The “hFLT3 LANCE IC50/EC50” value at hFLT3 (assay number 35) is on record as greater than 20 µM. Moreover, in assay [4], the “VEGF_ADSC\ECFC Angio Hoechst NucArea IC50/EC50” value is greater than 10 µM. Besides, the “hJAK2 LANCE IC50/EC50” value on hJAK2 (assay number 33) is greater than 20 µM. The “mSTC-1 GLP1 Secretion IC50/EC50” value with STC-1 cell line (assay number 13) is reported as 13.8183 µM. The “5mMGluc_INS1E SecretionMod IC50/EC50” value in the assay on INS-1E cells (assay number 8, 5 mM glucose) is 21.7337 µM.
In the case of `CCCCCCCCCCCCCC[N+](C)(C)Cc1ccccc1` [NCGC00187943-02], the “WntCondMedia_Alk Phos C2C12 IC50/EC50” value in [1] is reported as greater than 20 µM. For the same compound, the “VEGF_ADSC\ECFC Angio CD31 TubeArea IC50/EC50” value in assay [3] worked out at 3.0091 µM. Besides, in assay [2], the “WntCondMedia_bCatenin C2C12 IC50/EC50” value is on record as greater than 20 µM. The “VEGF_ADSC\ECFC Angio Hoechst NucArea IC50/EC50” value in assay [4] was determined as 8.357 µM.
For the compound `CC(C)CCCC(C)NCCC(C)C` (stereo not drawn) [NCGC00261980-01], the “hNCI-H716 GLP1 Secretion IC50/EC50” value in the assay on NCI-H716 cells (assay number 12) is greater than 40 µM. The “VEGF_ADSC\ECFC Angio CD31 TubeArea IC50/EC50” value in assay [3] is greater than 10 µM. Besides, the “VEGF_ADSC\ECFC Angio Hoechst NucArea IC50/EC50” value in [4] is greater than 10 µM. Besides, the “mSTC-1 GLP1 Secretion IC50/EC50” value in the assay on STC-1 cell line (assay number 13) is on record as greater than 40 µM. In addition, in the assay with INS-1E cells (assay number 8, 5 mM glucose), the “5mMGluc_INS1E SecretionMod IC50/EC50” value was greater than 33.33 µM.
In the case of `O.O.O.O.O=C1OC2(c3cc(Br)c([O-])cc3Oc3c2cc(Br)c([O-])[c]3[Hg])c2ccccc21.[Na+].[Na+]` (stereo not drawn) [NCGC00262588-02], the “WntCondMedia_Alk Phos C2C12 IC50/EC50” value in assay [1] was greater than 20 µM. In assay [2], the “WntCondMedia_bCatenin C2C12 IC50/EC50” value amounted to 16.8578 µM.
`Cc1c2oc3c(C)ccc(C(=O)N[C@@H]4C(=O)N[C@H](C(C)C)C(=O)N5CCC[C@H]5C(=O)N(C)CC(=O)N(C)[C@@H](C(C)C)C(=O)O[C@@H]4C)c3nc-2c(C(=O)N[C@@H]2C(=O)N[C@H](C(C)C)C(=O)N3CCC[C@H]3C(=O)N(C)CC(=O)N(C)[C@@H](C(C)C)C(=O)O[C@@H]2C)c(N)c1=O` [NCGC00271789-02] (I: T[dV]P[Sar][NMeV] / II: T[dV]P[Sar][NMeV]; ester I:1-I:C, II:1-II:C; linker I:N-II:N via Actinocin(9to1)): the “WntCondMedia_Alk Phos C2C12 IC50/EC50” value in assay [1] was 0.0015 µM. The “VEGF_ADSC\ECFC Angio CD31 TubeArea IC50/EC50” value in assay [3] is 0.001 µM. Besides, the “WntCondMedia_bCatenin C2C12 IC50/EC50” value in assay [2] is listed as 0.037 µM. Moreover, the “VEGF_ADSC\ECFC Angio Hoechst NucArea IC50/EC50” value in [4] was found to be 0.04031 µM.
`CN1CCCC(CC2c3ccccc3Sc3ccccc32)C1.Cl` (stereo not drawn) [NCGC00273481-01]: in the assay with DLD-1, the “Basal_Viability ATP DLD-1 IC50/EC50” value is given as greater than 20 µM. In the assay with SW480, the “Basal_Viability ATP SW480 IC50/EC50” value came out at 4.7038 µM. For the same compound, the “hNCI-H716 GLP1 Secretion IC50/EC50” value with NCI-H716 cells is greater than 40 µM. The “Basal_Viability ATP SNU-C1 IC50/EC50” value in the assay on SNU-C1 is reported as 15.0863 µM. Also, in the assay with HeLa cells, the “Hela CellCycMod PI 2N IC50/EC50” value is greater than 10 µM, the “Hela CellCycMod PI 4N IC50/EC50” value was greater than 10 µM, the “Hela CellCycMod PI Cell Number IC50/EC50” value was greater than 10 µM and the “Hela CellCycMod PI MI IC50/EC50” value is greater than 10 µM. In addition, the “Basal_Viability ATP HCT116 IC50/EC50” value in the assay with HCT116 is recorded as greater than 20 µM. For the same compound, in [3], the “VEGF_ADSC\ECFC Angio CD31 TubeArea IC50/EC50” value is 8.6842 µM. Further, the “Basal_Viability ATP HT-29 IC50/EC50” value with HT-29 is reported as 6.4328 µM. In the assay with RKO, the “Basal_Viability ATP RKO IC50/EC50” value came to 3.4891 µM. For the same compound, in the assay on Colo320, the “Basal_Viability ATP Colo 320 IC50/EC50” value is given as greater than 20 µM. Besides, in assay [4], the “VEGF_ADSC\ECFC Angio Hoechst NucArea IC50/EC50” value is on record as greater than 10 µM. Moreover, the “mSTC-1 GLP1 Secretion IC50/EC50” value with STC-1 cell line was greater than 40 µM. In assay [5], the “GSK3b inh pretreated_Viability ATP HCT116 IC50/EC50” value is listed as 8.6816 µM. In addition, the “5mMGluc_INS1E SecretionMod IC50/EC50” value in the assay with INS-1E cells is greater than 11.11 µM.
Take `Cc1ccc([N+](=O)[O-])[c]2c1[O][Hg]2` [nitromersol, reference compound]: the IC50 on hKDR (read-out: KDR) is 16.8 µM; in the assay with DLD-1 (basal, read-out: Basal_Viability ATP DLD-1), 1.62 µM; in the assay with SW480 (basal, read-out: Basal_Viability ATP SW480), 1.13 µM; in the assay with SNU-C1 (basal, read-out: Basal_Viability ATP SNU-C1), 0.202 µM; at hp70S6K1 (RPS6KB1) (read-out: p70S6K1), greater than 20 µM; in the assay with HCT116 (basal, read-out: Basal_Viability ATP HCT116) it was 2.83 µM. The IC50 was 0.668 µM in assay [3] (IC50 / EC50, endothelial tube area, ADSC/ECFC co-culture, read-out: Anti-Angiogenesis); 8.37 µM at hGSK3b (read-out: GSK3b); 10.4 µM on hFLT3 (read-out: FLT3); 1.44 µM in the assay on HT-29 (basal, read-out: Basal_Viability ATP HT-29); 0.935 µM in the assay on Colo320 (basal, read-out: Basal_Viability ATP Colo 320); greater than 20 µM at hJAK2 (read-out: JAK2). Further, in assay [5] (GSK3b inhibitor pretreated, read-out: GSK3b inh pretreated_Viability ATP HCT116), the IC50 was greater than 20 µM. Moreover, the “activity in NCI-H716 GLP-1 secretion assay (in words)” value in the assay with NCI-H716 cells is listed as “potent actives”. For the same compound, the EC50 in the assay with NCI-H716 cells (IC50 / EC50, NCI-H716, read-out: GLP 1 Secretion) was 0.0972 µM; with HeLa cells (IC50 / EC50, HeLa, read-out: CellCycle G2/M), greater than 10 µM; in assay [2] (IC50 / EC50, C2C12 beta-catenin translocation, read-out: Wnt Pathway), 0.155 µM; in the assay with INS-1E cells (IC50 / EC50, INS-1E, read-out: Insulin Secretion) it was greater than 20 µM. Besides, the “activity in STC-1 GLP-1 secretion assay (in words)” value in the assay with STC-1 cell line was “potent actives”.

These data come from publication PMC4503722, “Novel Phenotypic Outcomes Identified for a Public Collection of Approved Drugs from a Publicly Accessible Panel of Assays” (PLoS ONE, 2015).
